For series [1] the following is noted: eye drops, cited from earlier work.
For series [2] the following is noted: administered topically as a solution; cited from earlier work.
Series [3] is described as follows: Release of timolol maleate in vitro from microspheres. It is filed as physicochemical. The settings on record: 20% w/w timolol maleate to PLGA; AOT 147 mM in first emulsion step, or Span 20 in its place. The procedure:
In 1.5 ml eppendorf tubes, 10 mg of timolol containing or blank microparticles were reconstituted with 1 ml of phosphate buffered saline (PBS). Samples were prepared in triplicate. The samples were incubated at 37° C. on a labquake rotating shaker (Barnstead/Thermolyne; Dubuque, Iowa, USA). At specific time points (1, 3, 5, and 8 hours; 1, 2, 3, 5, and 7 days; and once every 7 days thereafter until no pellets remained), the samples were centrifuged and the supernatant collected. 1 ml of PBS was added to the replace the withdrawn supernatant and the microparticles were resuspended and returned to the shaker. Supernatants for each of the sets of microspheres was frozen and stored at −80° C. for subsequent analysis using UV spectroscopy at 293 nm.
The drug loading was 20% weight of timolol maleate to weight of polymer. The particles were stored in deionized water at 37° C. Following centrifugation at predetermined time points, the supernatant was extracted and timolol maleate content measured. FIG. 3 depicts the same values expressed as a percentage of the loading values in FIG. 1.

Series [4] relates to adult rat retinal ganglion cells. The settings on record: cited from earlier work; for delay of onset of axotomy-induced RGC death: intraocular administration at the time of axotomy; for effect on survival of RGCs after axotomy: intraocular administration.

Structures can show the parent of a compound that is named as a salt. Where two headings read alike, the source gives them in different places.

Here are results for five molecules from patent US8492334B2, “Sustained intraocular delivery of drugs from biodegradable polymeric microparticles” (Yale University, priority 2007, dated 2013).

With `CC(C)(C)NC[C@H](O)COc1nsnc1N1CCOCC1` [Timolol maleate], in series [1], the “systemic absorption of the administered drug” value was “approximately 80%” and the “topically administered drug reaching the aqueous humor” value is “less than 1%”. Further, the “systemic absorption of the administered drug” value in series [1] (listed as timolol maleate) is on record as approximately 80%. Further, the “average IOP reduction” value in series [2] is listed as 20-35%.
Consider Span 20, for which the “effect of added surfactant on loading or release of timolol maleate” value in series [3] is given as “no significant effect”.

B1: BDNF: brain-derived neurotrophic factor, a protein neurotrophic factor (protein, UniProt P23560 19-247, looked up)
Neurotrophic factor BDNF …: APMKEANIRGQGGLAYPGVRTHGTLESVNGPKAGSRGLTSLADTFEHVIEELLDEDQKVRPNEENNKDADLYTSRVMLSSQVPLEPPLLFLLEEYKNYLDAANMSMRVRRHSDPARRGELSVCDSISEWVTAADKKTAVDMSGGTVTVLEKVPVSKGQLKQYFYETKCNPMGYTKEGCRGIDKRHWNSQCRTTQSYVRALTMDSKKRIGWRFIRIDTSCVCTLTIKRGR
B1: in series [4], the “delay of onset of axotomy-induced RGC death” value is given as “approximately 3 days” and the “effect on survival of RGCs after axotomy” value is on record as “neuroprotective effect”.

B2: NT-4: neurotrophic factor in the NGF family of neurotrophins (protein, UniProt P34130 81-210, looked up)
Neurotrophin-4: GVSETAPASRRGELAVCDAVSGWVTDRRTAVDLRGREVEVLGEVPAAGGSPLRQYFFETRCKADNAEEGGPGAGGGGCRGVDRRHWVSECKAKQSYVRALTADAQGRVGWRWIRIDTACVCTLLSRTGRA
For the molecule B2, in series [4], the “delay of onset of axotomy-induced RGC death” value is given as “approximately 3 days” and the “effect on survival of RGCs after axotomy” value is given as “neuroprotective effect”.

B3: NT-3: neurotrophic factor in the NGF family of neurotrophins (protein, UniProt P20783 139-257, looked up)
Neurotrophin-3: YAEHKSHRGEYSVCDSESLWVTDKSSAIDIRGHQVTVLGEIKTGNSPVKQYFYETRCKEARPVKNGCRGIDDKHWNSQCKTSQTYVRALTSENNKLVGWRWIRIDTSCVCALSRKIGRT
As to B3, in series [4], the “effect on survival of RGCs after axotomy” value is given as “did not modify the survival of RGCs”.
